ChEMBL document CHEMBL4813945, “Discovery and development of novel pyrimidine and pyrazolo/thieno-fused pyrimidine derivatives as potent and orally active inducible nitric oxide synthase dimerization inhibitor with efficacy for arthritis” (Eur J Med Chem, 2021)
Calls of active or inactive are those of the source. No cut-off for these calls is given here.

Experiments:
Rattus norvegicus = experiment: Antiinflammatory activity in complete freund's adjuvant-induced male Sprague-Dawley rat model of arthritis assessed as reduction in synovial hyperplasia at 80 mg/kg, IG after 4 weeks by H and E staining based histopathological analysis; type: functional, organism-based
[1] = Acute toxicity in rat assessed as fur wrinkles at 2000 mg/kg, IG administered as single dose; type: organism-based; settings: in vivo, po
[2] = Subacute toxicity in rat assessed as heart damage at 100 to 500 mg/kg, IG administered every other day for 14 days and measured every 2 days by H and E staining; type: organism-based; settings: in vivo, po, 336 h, dose 100-500 mg/kg, time 14 day
[3] = Acute toxicity in rat assessed as anorexia at 2000 mg/kg, IG administered as single dose; type: organism-based; settings: in vivo, po
[4] = Plasma clearance in Sprague-Dawley rat at 1 mg/kg, iv measured after 0.08 to 24 hrs hrs by LC/MS/MS analysis; type: ADME, organism-based; settings: time 0.08-24 hrs
[5] = Subacute toxicity in rat assessed as clonic convulsions at 100 to 500 mg/kg, IG administered every other day for 14 days and measured every 2 days; type: organism-based; settings: in vivo, po, 336 h, dose 100-500 mg/kg, time 14 day
[6] = Acute toxicity in rat assessed as mortality at 2000 mg/kg, IG administered as single dose; type: organism-based; settings: in vivo, po
[7] = Half life in Sprague-Dawley rat at 1 mg/kg, iv measured after 0.08 to 24 hrs by LC-MS/MS analysis; type: ADME, organism-based; settings: in vivo, time 0.08-24 hrs
[8] = Metabolic stability in human hepatocytes assessed as half life measured upto 120 mins by LC-MS/MS analysis; type: ADME, cell-based, Hepatocyte
[9] = Subacute toxicity in rat assessed as spleen damage at 100 to 500 mg/kg, IG administered every other day for 14 days and measured every 2 days by H and E staining; type: organism-based; settings: in vivo, po, 336 h, dose 100-500 mg/kg, time 14 day

COc1cc(/C=C/c2nc(NCc3ccc(C)cc3)c3sccc3n2)cc(OC)c1OC
Activity (Rattus norvegicus): Active | Activity [1]: Non-Toxic | Activity [2]: Non-Toxic | Activity [3]: Non-Toxic | clearance [4]: 42.9 mL/min/kg | Activity [5]: Non-Toxic | Activity [6]: Non-Toxic | half-life [7]: 6.21 h | half-life [8]: 5.44 h | Activity [9]: Non-Toxic
